In patent publication US9447044B2, “Thioaryl derivatives as GPR120 agonists” (LG LIFE SCIENCES LTD., priority 2012, dated 2016) one finds EC50 data, which are given here for 13 compounds.

For one experiment, the target named is T1, hGPR120 (Homo sapiens, UniProt Q5NUL3).
T1 construct: expressed in transfected cells; host or cells: CHO-K1
T1 sequence (Q5NUL3 1-361): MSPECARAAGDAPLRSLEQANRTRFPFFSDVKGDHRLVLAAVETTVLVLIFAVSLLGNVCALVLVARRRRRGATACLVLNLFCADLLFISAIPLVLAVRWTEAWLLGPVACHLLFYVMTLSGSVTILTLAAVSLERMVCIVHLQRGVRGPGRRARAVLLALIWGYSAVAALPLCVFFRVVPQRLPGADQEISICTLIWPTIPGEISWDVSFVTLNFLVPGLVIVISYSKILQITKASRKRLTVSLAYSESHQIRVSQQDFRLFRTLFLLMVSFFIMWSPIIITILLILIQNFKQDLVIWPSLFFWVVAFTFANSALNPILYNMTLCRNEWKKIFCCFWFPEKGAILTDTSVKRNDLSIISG
Put plainly: Measurement of activity of GPR120 agonist (cell-based assay), calcium fluorescence. Particulars: CHO-K1 cells expressing Ga16 and hGPR120; Calcium 5 dye fluorescence; activity class. As for the experimental part: CHO-K1 cells expressing Ga16 and hGPR120 were dispensed into each well of a 96-well plate (3×10^4 cells/100 μl/well) and then incubated in 5% CO2, 37° C. incubator for 18 hours. Each well was treated with 100 μl of Calcium 5 dye (Molecular Devices) solution including 2% DMSO and then incubated in 5% CO2, 37° C. incubator for 1 hour. Serially diluted GPR120 agonists were prepared to a final concentration of 0.5% DMSO in a 96-well plate. Each well was treated with 50 μl of the agonist compounds using Plexstation II, and then fluorescence was measured at Ex 485 nm, Em 525 nm.
Fluorescence increased by the serially diluted GPR120 agonists is calculated as a relative percent (%) value based on the fluorescence represented by the treatment of 0.1% DMSO only. […] The calculation of measurement was carried out by using statistical software (Prizm).
Activity is denoted based on the following criteria: A=>20 μM, B=[…], C=2˜0.2 μM, D=<0.2 μM
In general, EC50 refers to the concentration at which the effect is half-maximal. On to `CCCSc1ncccc1COc1ccc(C2CC2C(=O)O)cc1F` (single isomer, unassigned) [Example 119, 2-[3-fluoro-4-(2-propylsulfanyl-pyridin-3-ylmethoxy)-phenyl]-cyclopropane carboxylic acid], for which the concentration giving a half-maximal response (EC50) was below 200 nM.
For `O=C(O)C1CC1c1ccc(OCc2cccnc2SC2CCC2)c(Cl)c1` (single isomer, unassigned) [Example 124, 2-[3-chloro-4-(2-cyclobutylsulfanyl-pyridin-3-ylmethoxy)-phenyl]-cyclopropane carboxylic acid], the concentration giving a half-maximal response (EC50) was in the range of 200 to 2000 nM.
Consider `O=C(O)C1CC1c1ccc(OCc2cccnc2SC2CCC2)c(Cl)c1` (single isomer, unassigned) [Example 125, 2-[3-chloro-4-(2-cyclobutylsulfanyl-pyridin-3-ylmethoxy)-phenyl]-cyclopropane carboxylic acid], for which the concentration for a half-maximal effect (EC50) is below 200 nM.
The same measure, in the same setting: the value for `O=C(O)C1CC1c1ccc(OCc2cccnc2SCC2CC2)c(F)c1` (single isomer, unassigned) [Example 129, 2-[4-(2-cyclopropylmethylsulfanyl-pyridin-3-ylmethoxy)-3-fluoro-phenyl]-cyclopropane carboxylic acid] was 200 to 2000 nM; that for `O=C(O)C1CC1c1ccc(OCc2cccnc2SC2CCCC2)c(F)c1` (single isomer, unassigned) [Example 130, 2-[4-(2-cyclopentylsulfanyl-pyridin-3-ylmethoxy)-3-fluoro-phenyl]-cyclopropane carboxylic acid] was 200 to 2000 nM; that for `CC(C)Sc1cccc(COc2ccc(C3CC3C(=O)O)cc2F)n1` (single isomer, unassigned) [Example 131, 2-[3-fluoro-4-(6-isopropylsulfanyl-pyridin-2-ylmethoxy)-phenyl]-cyclopropane carboxylic acid] was 200 to 2000 nM.
With `O=C(O)C1CC1c1ccc(OCc2cccnc2SC2CCC2)c(F)c1` (single isomer, unassigned) [Example 133, 2-[4-(2-cyclobutylsulfanyl-pyridin-3-ylmethoxy)-3-fluoro-phenyl]-cyclopropane carboxylic acid], the concentration for a half-maximal effect (EC50) fell in the range of 200 to 2000 nM.
For `O=C(O)C1CC1c1ccc(OCc2cccc(SC3CCCC3)n2)c(F)c1` (single isomer, unassigned) [Example 134, 2-[4-(6-cyclopentylsulfanyl-pyridin-2-ylmethoxy)-3-fluoro-phenyl]-cyclopropane carboxylic acid], the 50% effective concentration (EC50) is below 200 nM.
`O=C(O)C1CC1c1cc(F)c(OCc2cccnc2SCC2CC2)c(F)c1` (single isomer, unassigned) [Example 136, 2-[4-(2-cyclopropylmethylsulfanyl-pyridin-3-ylmethoxy)-3,5-difluoro-phenyl]-cyclopropane carboxylic acid]: the 50% effective concentration (EC50) fell in the range of 200 to 2000 nM.
As to `O=C(O)C1CC1c1cc(F)c(OCc2cccnc2SCC2CC2)c(F)c1` (single isomer, unassigned) [Example 137, 2-[4-(2-cyclopropylmethylsulfanyl-pyridin-3-ylmethoxy)-3,5-difluoro-phenyl]-cyclopropane carboxylic acid], the concentration giving a half-maximal response (EC50) was below 200 nM.
For `CCCSc1ncccc1COc1ccc(C2CC2C(=O)O)cc1F` (single isomer, unassigned) [Example 163, 2-[3-fluoro-4-(2-propylsulfanyl-pyridin-3-ylmethoxy)-phenyl]-cyclopropane carboxylic acid], the half-maximal effective concentration (EC50) was below 200 nM.
Same read-out and setting: the value for `O=C(O)C1CC1c1ccc(OCc2cccnc2SC2CCCC2)c(F)c1` (single isomer, unassigned) [Example 164, 2-[4-(2-cyclopentylsulfanyl-pyridin-3-ylmethoxy)-3-fluoro-phenyl]-cyclopropane carboxylic acid] was below 200 nM.

Still in this experiment, the particulars now being: CHO-K1 cells expressing Ga16 and hGPR120; Calcium 5 dye fluorescence; numeric value.
In the case of `O=C(O)C1CC1c1ccc(OCc2cccc(SC3CCC3)n2)c(F)c1` (single isomer, unassigned) [Example 135, 2-[4-(6-cyclobutylsulfanyl-pyridin-2-ylmethoxy)-3-fluoro-phenyl]-cyclopropane carboxylic acid], the concentration giving a half-maximal response (EC50) came out at 27 nM.
